Data taken from patent publication US20200283807A1, “METHOD AND CELL LINE FOR PRODUCTION OF PHYTOCANNABINOIDS AND PHYTOC[…] IN YEAST” (Hyasynth Biologicals Inc., priority 2017, published 2020).

Assays:
[1] = tested on: S. cerevisiae; test: Growth of S. cerevisiae strain HB37 in the presence of hexanoic acid (A600 of culture); assay type: cell-based, Saccharomyces cerevisiae; conditions: HB37-HA, 0.5 mM hexanoic acid
Protocol: (§1) Yeast cultures were grown in overnight cultures with selective media to provide starter cultures. The resulting starter cultures were then used to inoculate triplicate 50 ml cultures to an optical density at having an absorption at 600 nm (“A600”) of 0.1.
(§2) In the presence of 0.5 mM hexanoic acid, HB13 and HB37 were grown for 96 hours with samples taken at the 24h, 36h, 48h, 60, 72h, 84h and 96h points. In the absence of hexanoic acid, HB13 and HB84 were grown and a single time point was taken at 72 hours. HB13 was used as a control in both experiments. The growth media are described above in relation to Tables 8 and 9.
FIGS. 13 to 15 each show the A600 values of the HB37 culture listed in Table 10 (dashed lines with triangle data points).

[2] = tested on: S. cerevisiae; test: Effect of hexanoic acid on growth of S. cerevisiae strain HB13 (A600 of culture); assay type: cell-based, Saccharomyces cerevisiae; conditions: for growth (A600): HB13-HA, 0.5 mM hexanoic acid
Protocol: as §1
HB13 was cultured in YNB+2% glucose+1.6 g/L 4DO*+0.5 mM hexanoic acid. Hexanoic acid was added at 36 hours of culture. The hexanoic acid was added to separate culture samples at concentrations of 0, 0.5, 1.0 and 3.0 mM. Hexanoic acid is toxic to S. cerevisiae. […] The magnitude of the decrease in S. cerevisiae growth corresponds to the concentration of hexanoic acid in the growth media. The A600 value of culture suspensions quantifies the growth rate, which is shown at hexanoic acid concentrations of 0, 0.5, 1.0 and 3.0 mM in FIG. 12.
as §2

CCCCCC(=O)O [hexanoic acid]
growth (A600) ([1]; 24 h): 3.33 | growth (A600) ([1]; 36 h): 3.43 | growth (A600) ([1]; 48 h): 3.33 | growth (A600) ([1]; 60 h): 3.53 | growth (A600) ([1]; 72 h): 4.48 | growth (A600) ([1]; 84 h): 4.13 | growth (A600) ([1]; 96 h): 4.33 | growth (A600) ([2]; 24 h): 5.33 | growth (A600) ([2]; 36 h): 5.80 | growth (A600) ([2]; 48 h): 4.67 | growth (A600) ([2]; 60 h): 6.07 | growth (A600) ([2]; 72 h): 8.96 | growth (A600) ([2]; 84 h): 7.23 | growth (A600) ([2]; 96 h): 8.28 | effect of hexanoic acid supplementation on growth of S. cerevisiae (A600) ([2]; HB13, hexanoic acid added at 36 hours at 0, 0.5, 1.0 and 3.0 mM, FIG. 12): Decreased growth
